This is an account of results in article PMC9324262, “Selective CDK9 Inhibition by Natural Compound Toyocamycin in Cancer Cells” (Cancers, 2022).

One data set concerns CDK9. The data set can be described thus: Western blot, CDK9 protein level. It counts as cell-based, human. The note with it: HCT116, 50–500 nM, 6 h. As for the experimental part: YB5 cells were harvested in 50 mM Tris-HCl, 1% NP-40, 1 mM EDTA, 1 mM EGTA, 0.25% sodium deoxycholate, 150 mM NaCl, 50 mM sodium fluoride, and 1X Complete protease cocktail (Roche, Basel, Switzerland) with 1 mM PMSF. The total protein concentration was measured in all samples by standard BCA protocol (Pierce-23225, Thermo Scientific, Waltham, MA, USA) to ensure that an equal amount of protein was added to each sample. Protein extracts were run on 12% SDS–PAGE precast gels (Bio-Rad, Hercules, CA, USA, 345-0118). Proteins were transferred to polyvinylidene difluoride (PVDF) membranes in 10 mmol/L CAPS (pH-11) containing 10% methanol and detected by using specific primary antibodies, horseradish peroxidase–conjugated secondary antibodies (GE Healthcare, Chicago, IL, USA), and an enhanced chemiluminescence reagent (Pierce). PVDF membranes were incubated with specific primary antibodies (actin—A5441, Sigma, St. Louis, MO, USA; HA-tagged—H9608, Sigma; FLAG-tagged—F3165, Sigma). FLAG- and HA-tagged CDK9 plasmids were a generous gift from Dr Bassel E. Sawaya (Temple University). […] After sonication, total protein concentrations were determined using Bradford protein assay. […] Band intensity quantifications were calculated using ImageJ software, edition 1.53 [27].

On the set-up of data set [1]: method as in PMID 5646857. The note with it: cited from earlier work.
The next data set has as its target T1, CDK4/Cyclin D3 (Homo sapiens, UniProt P11802).
T1 construct: purchased BPS Bioscience
The data set is described as follows: in vitro kinase assay CDK4/Cyclin D3 (Kinase-Glo Plus). In kind it is biochemical. As for the experimental part: (§1) The in vitro enzymatic assays were conducted at BPS Bioscience. CDK9/Cyclin T1, CDK2/Cyclin 2A, CDK4/Cyclin D3, and CDK6/Cyclin D3 enzymatic activities were tested with an ATP Kinase-Glo Plus Luminescence kinase assay kit (Promega, V6073, Madison, WI, USA), while the CDK7/Cyclin H/MAT1 activities were tested using ADP-Glo Kinase (Promega, V6930). These assays measure kinase activity by quantifying the amount of ATP or ADP remaining in solution following a kinase reaction. The luminescent signal from the assay is correlated to the amount of ATP or ADP present and is inversely correlated to the kinase activity. The compounds were diluted to 10% DMSO and were added to the reaction so that the final concentration of DMSO was 1% in all reactions. All enzymatic reactions were conducted at 30 °C for 60 min. […] After the enzymatic reaction, the luminescence signal was measured using a BioTek Synergy 2 microplate reader (Agilent, Santa Clara, CA, USA). Kinase activity assays were performed in duplicate at each concentration and the percent of kinase activity was calculated as a ratio of luminescence intensities in the absence or in presence of the compounds. […] IC50 values were determined by the concentration causing a half-maximal percent activity (BPS Bioscience, San Diego, CA, USA).
A general note: Kinase-Glo measures the ATP left after a reaction by luminescence.

Data set [2] concerns Rb phosphorylation level (T826). The data set is described as follows: Western blot, Rb and phospho-Rb T826. In kind it is cell-based, human. The note with it: HCT116, 50–500 nM, 6 h. For orientation: In western blotting, separated proteins are transferred to a membrane and probed.
Data set [3] deals with 451-Lu-BR human melanoma cells. The data set is described as follows: proliferation assay by cell counting. In kind it is cell-based. On the procedure:
Proliferation assays were performed for 451-Lu-BR human melanoma cells in response to toyocamycin exposure. First, 20,000 cells were seeded per well in 24-well plates. Cells were treated with either DMSO (<0.01% final concentration) or various toyocamycin concentrations. Cell proliferation was assessed by cell counting using a hemocytometer (n = 3) after 24, 48, and 72 h of treatment. The data were plotted as the total number of cells in response to toyocamycin for each treatment duration relative to DMSO treated cells.

For a further data set, the target named is T2, CDK2/Cyclin 2A (Homo sapiens, UniProt P24941).
T2 construct: purchased BPS Bioscience
The data set can be described thus: biochemical. The note with it: 10 µM ATP, 30 °C, 60 min. On the procedure:
as §1

Another data set relates to RNA-Pol II Ser2-P. The data set is described as follows: Western blot, RNA Pol II and phospho-Pol II Ser2. It counts as cell-based, human. The note with it: 6 h. On the procedure: YB5 cells were harvested in 50 mM Tris-HCl, 1% NP-40, 1 mM EDTA, 1 mM EGTA, 0.25% sodium deoxycholate, 150 mM NaCl, 50 mM sodium fluoride, and 1X Complete protease cocktail (Roche, Basel, Switzerland) with 1 mM PMSF. The total protein concentration was measured in all samples by standard BCA protocol (Pierce-23225, Thermo Scientific, Waltham, MA, USA) to ensure that an equal amount of protein was added to each sample. Protein extracts were run on 12% SDS–PAGE precast gels (Bio-Rad, Hercules, CA, USA, 345-0118). Proteins were transferred to polyvinylidene difluoride (PVDF) membranes in 10 mmol/L CAPS (pH-11) containing 10% methanol and detected by using specific primary antibodies, horseradish peroxidase–conjugated secondary antibodies (GE Healthcare, Chicago, IL, USA), and an enhanced chemiluminescence reagent (Pierce). PVDF membranes were incubated with specific primary antibodies (actin—A5441, Sigma, St. Louis, MO, USA; HA-tagged—H9608, Sigma; FLAG-tagged—F3165, Sigma). FLAG- and HA-tagged CDK9 plasmids were a generous gift from Dr Bassel E. Sawaya (Temple University). For CDK9 target modulation, HCT116 colon cancer cells were treated with toyocamycin or known CDK9 inhibitor BAY1251152 (Selleckchem, Houston, TX, USA). Whole cell extracts were obtained by lysing cells with 25 mM Tris (pH 7.3) and 1% sodium dodecyl sulfate (SDS). After sonication, total protein concentrations were determined using Bradford protein assay. The following primary antibodies were used to investigate the effect of CDK9 inhibition: Pol II against the N-term region (sc-55492, Santa Cruz, Dallas, TX, USA), Pol II against the C-term region (39097, Active motif, Carlsbad, CA, USA), Pol II phospho CTD ser2 (14-9802-82, Invitrogen, Waltham, MA, USA), Rb (ab181616, Abcam, Cambridge, UK), Rb phospho T826 (ab133446, Abcam, Cambridge, UK), CDK9 (ab39098, Abcam, Cambridge, UK), and actin (ab1801, Abcam, Cambridge, UK). Images were acquired with an Image Quant LAS4000 device from GE Healthcare Life Sciences. Band intensity quantifications were calculated using ImageJ software, edition 1.53 [27].

Data set [4] deals with CMV promoter in YB5 cells. The data set can be described thus: DNA methylation by bisulfite pyrosequencing, CMV promoter. The note with it: 0.05–50 µM, 72 h. In kind it is cell-based, human. From the text: We analyzed DNA methylation levels on the CMV promoter region and LINE-1 repeated elements (as a marker of global DNA methylation level). After DNA extraction and bisulfite conversion, PCR amplification of regions of interest and pyrosequencing were achieved as previously described.

T1 sequence (P11802 whole entry): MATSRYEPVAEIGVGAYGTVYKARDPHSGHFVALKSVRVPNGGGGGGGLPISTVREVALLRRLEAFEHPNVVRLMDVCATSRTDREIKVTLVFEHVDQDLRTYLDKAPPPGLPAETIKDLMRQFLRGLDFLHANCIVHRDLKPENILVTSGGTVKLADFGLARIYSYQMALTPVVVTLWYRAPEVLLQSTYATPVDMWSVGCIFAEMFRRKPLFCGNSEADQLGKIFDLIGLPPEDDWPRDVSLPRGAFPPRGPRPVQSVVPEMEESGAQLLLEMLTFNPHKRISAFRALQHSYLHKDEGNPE
T1 sequence (P30281 whole entry partner): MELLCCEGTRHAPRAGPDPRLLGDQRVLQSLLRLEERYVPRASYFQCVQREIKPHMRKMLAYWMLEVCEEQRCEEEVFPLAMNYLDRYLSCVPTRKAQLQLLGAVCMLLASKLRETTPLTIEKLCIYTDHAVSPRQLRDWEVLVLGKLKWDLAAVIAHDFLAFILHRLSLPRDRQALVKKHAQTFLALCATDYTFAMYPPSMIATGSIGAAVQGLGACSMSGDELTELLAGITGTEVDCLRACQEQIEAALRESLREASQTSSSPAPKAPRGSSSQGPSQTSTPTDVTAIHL

With `N#Cc1cn([C@@H]2O[C@H](CO)[C@@H](O)[C@H]2O)c2ncnc(N)c12` [toyocamycin, 7-Deaza-7-cyanoadenosine], the CDK9 levels entry in the data set on CDK9 is given as “did not change”. The systemic toxic effects entry in data set [1] (10–200 µg/kg for 5 days, intravenous infusion over 1–2 h, twenty-three cancer patients) was “No systemic toxic effects were observed”. For the same compound, the local toxicity result in data set [1] (patients receiving the highest doses, intravenous infusion) was “local toxicity at the site of injection (severe phlebitis)”. Further, the values for the half-maximal inhibitory concentration (IC50) at CDK4/Cyclin D3 and at CDK2/Cyclin 2A were 15 µM and 0.67 µM, respectively. Further, in data set [2], the “Rb and its phosphorylated form (T826)” value is “did not change”. Further, the cell proliferation entry was “full proliferation arrest” in data set [3] (72 h treatment) and “did not reduce cell proliferation” in data set [3] (low doses, 24 h treatment). Also, the “RNA-Pol II ser 2 phosphorylation” value with RNA-Pol II Ser2-P (HCT116, 350–500 nM) is “significantly reduced”. The “RNA Pol II band intensity, Pol II C-terminal antibody” value with RNA-Pol II Ser2-P (HCT116, above 350 nM) is given as “reduced the RNA Pol II band intensity”. Further, the “DNA methylation on CMV promoter” value in data set [4] was “no changes in DNA methylation”.
